Results on 22 compounds are retold here after patent US12440496B2, “Natriuretic peptide receptor a agonists useful for the treatment of cardiometabolic diseases, kidney disease and diabetes” (Merck Sharp & Dohme LLC, priority 2019, dated 2025).

pEC50: −log10 of the molar value.

The target of this test is T1, hNPRA (Homo sapiens, UniProt P16066).
T1 construct: expressed in transfected cells
T1 sequence (P16066 33-1061): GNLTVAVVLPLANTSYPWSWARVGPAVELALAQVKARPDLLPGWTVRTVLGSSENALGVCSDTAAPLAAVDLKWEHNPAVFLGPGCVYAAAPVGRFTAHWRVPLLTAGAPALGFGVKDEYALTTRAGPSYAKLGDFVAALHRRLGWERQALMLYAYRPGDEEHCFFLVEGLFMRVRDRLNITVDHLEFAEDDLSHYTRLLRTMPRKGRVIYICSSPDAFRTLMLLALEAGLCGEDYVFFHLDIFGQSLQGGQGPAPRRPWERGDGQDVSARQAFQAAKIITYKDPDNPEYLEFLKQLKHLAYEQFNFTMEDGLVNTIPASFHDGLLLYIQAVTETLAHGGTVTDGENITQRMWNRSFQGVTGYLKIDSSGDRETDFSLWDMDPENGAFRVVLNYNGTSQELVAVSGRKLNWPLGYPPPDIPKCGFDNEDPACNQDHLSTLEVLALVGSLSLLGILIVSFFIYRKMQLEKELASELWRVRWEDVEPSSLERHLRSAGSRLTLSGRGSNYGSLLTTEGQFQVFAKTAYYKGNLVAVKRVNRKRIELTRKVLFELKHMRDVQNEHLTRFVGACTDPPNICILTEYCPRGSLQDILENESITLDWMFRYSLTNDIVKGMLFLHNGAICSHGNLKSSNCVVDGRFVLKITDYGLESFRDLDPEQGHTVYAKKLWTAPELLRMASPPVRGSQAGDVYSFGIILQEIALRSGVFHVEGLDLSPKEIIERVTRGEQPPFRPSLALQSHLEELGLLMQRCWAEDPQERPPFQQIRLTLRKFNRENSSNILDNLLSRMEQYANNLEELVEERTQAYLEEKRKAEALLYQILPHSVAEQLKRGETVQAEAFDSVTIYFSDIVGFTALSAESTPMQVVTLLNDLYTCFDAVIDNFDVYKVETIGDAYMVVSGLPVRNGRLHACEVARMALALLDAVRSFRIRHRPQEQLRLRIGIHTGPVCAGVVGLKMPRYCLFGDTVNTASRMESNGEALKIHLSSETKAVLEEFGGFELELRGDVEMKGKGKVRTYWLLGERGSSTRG
The test is described as follows: NPRA Functional Cell Assay (cGMP HTRF, NPRA HEK JumpIn stable cells). Particulars: cGMP production, 1 hour at 37° C., 10-point dose response. Type of test: cell-based. The essentials: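 cGMP HTRF read-out after 1 hour compound treatment at 37° C. of human NPRA-expressing HEK JumpIn cells, 1500 cells/well, in buffer with phosphodiesterase inhibitors IBMX and RO20 (100 uM each). Signal converted to [cGMP] by calibration curve; EC50s fitted by 4-parameter logistic; 50 nM h-ANP as positive response.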
As to `CC(C)(C)[C@H]1CCc2nc3sc(C(=O)NC(CCN4CCOCC4)c4ccccc4)cc3cc2C1` (stereo partly drawn) [Example 243, (6S)-6-tert-butyl-N-(3-morpholin-4-yl-1-phenylpropyl)-5,6,7,8-tetrahydrothieno[2,3-b]quinoline-2-carboxamide], the pEC50 (as a rule, the EC50 on a negative log10 scale, so that one unit is a factor of ten) is 5.20.

With `CCN(CC)CCC(NC(=O)c1cc2cc3c(nc2s1)CC[C@H](C(C)(C)C)C3)c1ccccc1` (stereo partly drawn) [Example 244, (6S)-6-tert-butyl-N-[3-(diethylamino)-1-phenylpropyl]-5,6,7,8-tetrahydrothieno[2,3-b]quinoline-2-carboxamide], the pEC50 was 5.66. The figure for `CC(C)(C)[C@H]1CCc2nc3sc(C(=O)NC(CCN4CCNCC4)c4ccccc4)cc3cc2C1` (stereo partly drawn) [Example 245, (6S)-6-tert-butyl-N-(1-phenyl-3-piperazin-1-ylpropyl)-5,6,7,8-tetrahydrothieno[2,3-b]quinoline-2-carboxamide] is 5.20. In turn, `CC(C)(C)[C@H]1CCc2nc3sc(C(=O)N[C@H](CCNC4CCOCC4)c4ccccc4)cc3cc2C1` [Example 248, (6S)-6-tert-butyl-N-[(1R)-1-phenyl-3-(tetrahydro-2H-pyran-4-ylamino)propyl]-5,6,7,8-tetrahydrothieno[2,3-b]quinoline-2-carboxamide] gave a pEC50 of 5.20. Next, `CC(C)(C)[C@H]1CCc2nc3sc(C(=O)N[C@H](CCN4CCC(O)CC4)c4ccccc4)cc3cc2C1` [Example 250, (6S)-6-tert-butyl-N-[(1R)-3-(4-hydroxypiperidin-1-yl)-1-phenylpropyl]-5,6,7,8-tetrahydrothieno[2,3-b]quinoline-2-carboxamide]: 6.20; `CC(C)(C)[C@H]1CCc2nc3sc(C(=O)N[C@H](CCN4CCCC(O)C4)c4ccccc4)cc3cc2C1` (stereo partly drawn) [Example 251, (6S)-6-tert-butyl-N-[(1R)-3-(3-hydroxypiperidin-1-yl)-1-phenylpropyl]-5,6,7,8-tetrahydrothieno[2,3-b]quinoline-2-carboxamide]: 6.20. Next, `CC(C)(C)[C@H]1CCc2nc3sc(C(=O)N[C@H](CCN4CCC(F)CC4)c4ccccc4)cc3cc2C1` [Example 252, (6S)-6-tert-butyl-N-[(1R)-3-(4-fluoropiperidin-1-yl)-1-phenylpropyl]-5,6,7,8-tetrahydrothieno[2,3-b]quinoline-2-carboxamide]: 5.20. Compound `CC(C)(C)[C@H]1CCc2nc3sc(C(=O)N[C@H](CCN4CCCC4)c4ccccc4)cc3cc2C1` [Example 253, (6S)-6-tert-butyl-N-[(1R)-1-phenyl-3-pyrrolidin-1-ylpropyl]-5,6,7,8-tetrahydrothieno[2,3-b]quinoline-2-carboxamide] gave a pEC50 of 5.49. On to `CC(C)(C)[C@H]1CCc2nc3sc(C(=O)N[C@H](CCN4CCC(CO)CC4)c4ccccc4)cc3cc2C1` [Example 255, (6S)-6-tert-butyl-N-{(1R)-3-[4-(hydroxymethyl)piperidin-1-yl]-1-phenylpropyl}-5,6,7,8-tetrahydrothieno[2,3-b]quinoline-2-carboxamide], for which the pEC50 is 5.53.

The compound `CC(C)(C)[C@H]1CCc2nc3sc(C(=O)N[C@H](CCN4CC(O)C4)c4ccccc4)cc3cc2C1` [Example 256, (6S)-6-tert-butyl-N-[(1R)-3-(3-hydroxyazetidin-1-yl)-1-phenylpropyl]-5,6,7,8-tetrahydrothieno[2,3-b]quinoline-2-carboxamide] had a pEC50 of 5.51.

As for `CC(C)(C)[C@H]1CCc2nc3sc(C(=O)N[C@H](CCN4CCC[C@H]4CO)c4ccccc4)cc3cc2C1` [Example 257, (6S)-6-tert-butyl-N-{(1R)-3-[(2S)-2-(hydroxymethyl)pyrrolidin-1-yl]-1-phenylpropyl}-5,6,7,8-tetrahydrothieno[2,3-b]quinoline-2-carboxamide], the pEC50 was 6.05.

Compound `CC(C)(C)[C@H]1CCc2nc3sc(C(=O)N[C@H](CCN4CCC(C(=O)O)CC4)c4ccccc4)cc3cc2C1` [Example 258, 1-[(3R)-3-({[(6S)-6-tert-butyl-5,6,7,8-tetrahydrothieno[2,3-b]quinolin-2-yl]carbonyl}amino)-3-phenylpropyl]piperidine-4-carboxylic acid] gave a pEC50 of 5.68. The figure for `CC(C)(C)[C@H]1CCc2nc3sc(C(=O)N[C@H](CCN4CCC(CO)C4)c4ccccc4)cc3cc2C1` (stereo partly drawn) [Example 259, (6S)-6-tert-butyl-N-{(1R)-3-[3-(hydroxymethyl)pyrrolidin-1-yl]-1-phenylpropyl}-5,6,7,8-tetrahydrothieno[2,3-b]quinoline-2-carboxamide] is 5.74; for `CC(C)(C)[C@H]1CCc2nc3sc(C(=O)N[C@H](CCN[C@H]4C[C@H](O)C4)c4ccccc4)cc3cc2C1` [Example 260, (6S)-6-tert-butyl-N-{(1R)-3-[(trans-3-hydroxycyclobutyl)amino]-1-phenylpropyl}-5,6,7,8-tetrahydrothieno[2,3-b]quinoline-2-carboxamide] it is 5.70; for `CC(C)(C)[C@H]1CCc2nc3sc(C(=O)N[C@H](CCN4CCC(O)C4)c4ccccc4)cc3cc2C1` (stereo partly drawn) [Example 261, (6S)-6-tert-butyl-N-[(1R)-3-(3-hydroxypyrrolidin-1-yl)-1-phenylpropyl]-5,6,7,8-tetrahydrothieno[2,3-b]quinoline-2-carboxamide] it is 5.20. On to `CC(C)(C)[C@H]1CCc2nc3sc(C(=O)N[C@H](CCN4CCC[C@@H]4CO)c4ccccc4)cc3cc2C1` [Example 262, (6S)-6-tert-butyl-N-{(1R)-3-[(2R)-2-(hydroxymethyl)pyrrolidin-1-yl]-1-phenylpropyl}-5,6,7,8-tetrahydrothieno[2,3-b]quinoline-2-carboxamide], for which the pEC50 was 5.20. Next, `CC(C)(C)[C@H]1CCc2nc3sc(C(=O)N[C@H](CCN4CCC(O)CC4)c4ccc(-c5ccnnc5)nc4)nc3cc2C1` [Example 263, (S)-7-(tert-butyl)-N-((R)-3-(4-hydroxypiperidin-1-yl)-1-(6-(pyridazin-4-yl)pyridin-3-yl)propyl)-5,6,7,8-tetrahydrothiazolo[5,4-b]quinoline-2-carboxamide]: 6.89; `CC1([C@H]2CCc3nc4sc(C(=O)N[C@H](CCN5CCC(O)CC5)c5ccc(-c6ccnnc6)nc5)nc4cc3C2)CC1` [Example 264, (S)-N-((R)-3-(4-hydroxypiperidin-1-yl)-1-(6-(pyridazin-4-yl)pyridin-3-yl)propyl)-7-(1-methylcyclopropyl)-5,6,7,8-tetrahydrothiazolo[5,4-b]quinoline-2-carboxamide]: 6.95; `CC(C)[C@]1(F)CCc2nc3sc(C(=O)N[C@H](CCN4CCC(O)CC4)c4ccc(-c5ccnnc5)nc4)nc3cc2C1` [Example 265, (S)-7-fluoro-N-((R)-3-(4-hydroxypiperidin-1-yl)-1-(6-(pyridazin-4-yl)pyridin-3-yl)propyl)-7-isopropyl-5,6,7,8-tetrahydrothiazolo[5,4-b]quinoline-2-carboxamide]: 6.61. The figure for `CC(C)(C)[C@H]1CCc2nc3sc(C(=O)N[C@H](CCN4CCC(O)CC4)c4cnc(-c5ccnnc5)c(F)c4)nc3cc2C1` [Example 266, (S)-7-(tert-butyl)-N-((R)-1-(5-fluoro-6-(pyridazin-4-yl)pyridin-3-yl)-3-(4-hydroxypiperidin-1-yl)propyl)-5,6,7,8-tetrahydrothiazolo[5,4-b]quinoline-2-carboxamide] is 6.85; for `CC1([C@H]2CCc3nc4sc(C(=O)N[C@H](CCN5CCC(O)CC5)c5ccc(-c6cn[nH]c6)cc5)nc4cc3C2)CC1` [Example 267, (S)-N-((R)-1-(4-(1H-pyrazol-4-yl)phenyl)-3-(4-hydroxypiperidin-1-yl)propyl)-7-(1-methylcyclopropyl)-5,6,7,8-tetrahydrothiazolo[5,4-b]quinoline-2-carboxamide] it is 6.18; for `O=C(N[C@H](CCN1CCC(O)CC1)c1ccc(-c2cn[nH]c2)cc1)c1nc2cc3c(nc2s1)CC[C@H](C1(C(F)(F)F)CC1)C3` [Example 268, (S)-N-((R)-1-(4-(1H-pyrazol-4-yl)phenyl)-3-(4-hydroxypiperidin-1-yl)propyl)-7-(1-(trifluoromethyl)cyclopropyl)-5,6,7,8-tetrahydrothiazolo[5,4-b]quinoline-2-carboxamide] it is 5.69.
